# Test system: NPY2R
# Assay: cAMP accumulation assay, NPY2R‐HEK293T cells
# Assay type: cell-based, human
# Settings: 0, 1, 10, 100 nM PYY, 0.5 mM IBMX, 10 μM FSK, 37 °C, 30 min, cAMP ELISA, n = 3
# Experimental: HEK293T cells (Lenti‐X 293T Cell line; TaKaRa, Shiga, Japan) were maintained in Dulbecco's Modified Eagle Medium (DMEM; Fujifilm Wako Pure Chemical Industries, Osaka, Japan) supplemented with 10% fetal bovine serum (Biowest, Nuaillé, France), 1% non‐essential amino acids (NEAA) (Fujifilm Wako Pure Chemical Industries), and 1% penicillin–streptomycin (P/S) (Fujifilm Wako Pure Chemical Industries) and cultured in non‐coated culture plates at 37 °C and in an incubator with 5% CO2. The culture medium was replaced every 2–3 days. At 80–90% confluence, the cell colonies were digested into single cells using TrypLE Express (Thermo Fisher Scientific). The resulting cells were used for lentiviral transfection and agonist experiments.
# Figure S1 presents the protocol used for this experiment. Lentiviral vectors were acquired from VectorBuilder (VectorBuilder Japan, Inc., Kanagawa, Japan). The mCherry expression vector (pLV‐Puro‐EF1A‐mCherry) was used as a control. pMD2.g plasmid (Addgene plasmid# 12259; RRID: Addgene 12259, Watertown, MA, USA) and psPAX2 plasmids (Addgene plasmid# 12260; RRID: Addgene 12260) were used as packaging plasmids. To produce lentiviruses, HEK293T cells were transduced with lentiviral vectors and packaging constructs containing 2 μg of lentivirus plasmids, 1 μg of pMD2.g, and 1 μg of psPAX2 plasmids using polyethyleneimine (PEI; Polysciences Inc., Warrington, PA, USA). […]
substance,measurement,value
"PYY: PYY (4400‐v; Peptide Institute, Inc.); PYY (3–36) in Ca2+ imaging",Intracellular cAMP levels (Gi function),decreased in a concentration‐dependent manner
